Test results reported in patent publication US20100184684A1, “ANTIBACTERIAL AND ANTIFUNGAL PEPTIDES” (C3 JIAN, INC., priority 2009, published 2010).
Converted amounts (≈) assume the structure as drawn. Read-outs that look alike come from different tables or passages of the source. Peptide text beside a SMILES is read from it.

Experiments:
C. difficile = type: cell-based, Clostridium difficile
Description: (§1) In certain embodiments the MIC assays are performed as described herein in the Examples. For each organism, the media and growth conditions utilized is detailed in Table 8.
(§2) In certain embodiments the MIC assays are performed as follows: For each organism, the media and growth conditions utilized is detailed in Table 8.

S. epidermidis = type: cell-based
Description: as §1, §2

B. subtilis = type: cell-based, Bacillus subtilis
Description: as §1, §2

T. rubrum = type: cell-based, Trichophyton rubrum
Description: as §1, §2

A. baumannii = type: cell-based, Acinetobacter baumannii
Description: as §1, §2

P. aeruginosa = type: cell-based, Pseudomonas aeruginosa
Description: as §1, §2

S. mutans = type: cell-based, Streptococcus mutans
Description: as §1, §2

C. jeikeium = type: cell-based, Corynebacterium jeikium
Description: as §1, §2

A. niger = type: cell-based, Aspergillus niger
Description: as §1, §2

P. gingivalis = type: cell-based, Porphyromonas gingivalis
Description: as §1, §2

MRSA = type: cell-based, Staphylococcus aureus; details: MRSA; BHI supplemented with 2% glucose, 37° C., aerobic, 10^5 CFU/ml
Description: as §1, §2

M. furfur = experiment: MIC assay; type: cell-based, Malassezia furfur; details: ATCC medium 1072, 37° C., aerobic, 10^5 CFU/ml
Description: as §1, §2

F. nucleatum = type: cell-based, Fusobacterium nucleatum
Description: as §1, §2

A. naeslundii = type: cell-based, Actinomyces naeslundii
Description: as §1, §2

Row | Structure (SMILES) | MIC (C. difficile) | MIC (S. epidermidis) | MIC (B. subtilis) | MIC (T. rubrum) | MIC (A. baumannii) | MIC (P. aeruginosa) | MIC (S. mutans) | MIC (C. jeikeium) | MIC (A. niger) | MIC (P. gingivalis; P. gingivalis, Columbia broth, 37° C., anaerobic, 10^5 CFU/ml) | MIC (MRSA) | MIC (S. epidermidis; S. epidermidis, BHI supplemented with 0.25% glucose, 37° C., aerobic, 10^5 CFU/ml) | MIC (M. furfur) | MIC (T. rubrum; T. rubrum, Potato Dextrose Agar, 25° C., aerobic, 10^5 CFU/ml) | MIC (P. aeruginosa; P. aeruginosa, MH, 37° C., aerobic, 10^5 CFU/ml) | MIC (S. mutans; S. mutans, TH supplemented with 1% sucrose, 37° C., anaerobic, 10^5 CFU/ml) | MIC (P. gingivalis) | MIC (F. nucleatum) | MIC (A. naeslundii)
1 | CC[C@H](C)[C@H](NC(=O)[C@H](CCCCN)NC(=O)[C@@H](NC(=O)[C@H](CCCCN)NC(=O)[C@H](CCCCN)NC(=O)[C@@H](NC(=O)[C@H](CCCCN)NC(=O)[C@@H]1CCCN1C(=O)[C@H](CCCNC(=N)N)NC(=O)[C@@H]1CCCN1C(=O)[C@H](CCC(N)=O)NC(=O)[C@H](CCC(N)=O)NC(=O)[C@H](CC(N)=O)NC(=O)[C@H](CC(C)C)NC(=O)[C@H](Cc1c[nH]cn1)NC(=O)[C@H](Cc1ccccc1)NC(=O)[C@H](CCC(N)=O)NC(=O)[C@@H](NC(=O)[C@@H](N)Cc1ccc(O)cc1)[C@@H](C)CC)C(C)C)[C@@H](C)CC)C(=O)N[C@@H](Cc1ccccc1)C(=O)N[C@@H](CC(C)C)C(=O)O [PF-531] (H-YIQFHLNQQPRPKVKKIKIFL-OH; N-terminus and C-terminus assumed) | 12.5 µM (≈ 33 µg/mL) | 50 µM (≈ 132 µg/mL) | 25 µM (≈ 66 µg/mL) | 50 µM (≈ 132 µg/mL) | 25 µM (≈ 66 µg/mL) | 50 µM (≈ 132 µg/mL) | 12.5 µM (≈ 33 µg/mL) | 6.25 µM (≈ 16.5 µg/mL) | 25 µM (≈ 66 µg/mL) | – | – | – | – | – | – | – | – | – | –
2 | CC[C@H](C)[C@H](NC(=O)[C@@H](NC(=O)[C@H](CO)NC(=O)CN)C(C)C)C(=O)N[C@@H](CCCCN)C(=O)N[C@@H](CCCCN)C(=O)N[C@@H](CCCNC(=N)N)C(=O)N[C@@H](CCCNC(=N)N)C(=O)N[C@@H](CCCCN)C(=O)N[C@@H](CCCNC(=N)N)C(=O)N[C@@H](CCSC)C(=O)N[C@@H](CO)C(=O)N[C@@H](CCCCN)C(=O)N[C@@H](CCCCN)C(=O)N[C@@H](CCCCN)C(=O)N[C@@H](Cc1c[nH]cn1)C(=O)N[C@@H](CCCNC(=N)N)C(=O)N[C@@H](CCCCN)C(=O)N[C@@H](CCSC)C(=O)N[C@@H](CC(C)C)C(=O)N[C@@H](CCCNC(=N)N)C(=O)N[C@@H](CCCNC(=N)N)C(=O)N[C@H](C(=O)N[C@@H](CCCNC(=N)N)C(=O)N[C@H](C(=O)N[C@@H](CCC(N)=O)C(=O)N[C@@H](CCCNC(=N)N)C(=O)N[C@@H](CCCNC(=N)N)C(=O)N[C@@H](CCCCN)C(=O)N[C@@H](CC(C)C)C(=O)NCC(=O)N[C@@H](CCCCN)C(=O)O)C(C)C)[C@@H](C)O [PF-S028] | – | – | – | – | – | – | – | – | – | 25 µM (≈ 101 µg/mL) | 50 µM (≈ 202 µg/mL) | 25 µM (≈ 101 µg/mL) | 2.5 µM (≈ 10.1 µg/mL) | 50 µM (≈ 202 µg/mL) | 50 µM (≈ 202 µg/mL) | 50 µM (≈ 202 µg/mL) | – | – | –
3 | CC[C@H](C)[C@H](NC(=O)[C@H](CCC(N)=O)NC(=O)[C@H](CCCCN)NC(=O)[C@H](CC(C)C)NC(=O)[C@H](CC(C)C)NC(=O)[C@@H]1CCCN1C(=O)[C@H](CCSC)NC(=O)[C@H](CC(C)C)NC(=O)[C@H](CO)NC(=O)[C@H](CCCCN)NC(=O)CNC(=O)[C@@H](N)CCCCN)C(=O)N[C@@H](CC(N)=O)C(=O)N[C@@H](CCC(N)=O)C(=O)N[C@@H](Cc1c[nH]c2ccccc12)C(=O)NCC(=O)N[C@@H](CCCCN)C(=O)N[C@@H](CC(C)C)C(=O)N[C@@H](Cc1ccc(O)cc1)C(=O)N[C@@H](CC(C)C)C(=O)O [PF-C239] (H-KGKSLMPLLKQINQWGKLYL-OH; N-terminus and C-terminus assumed) | – | – | – | – | – | – | 50 µM (≈ 118 µg/mL) | – | – | – | – | – | – | – | – | – | 50 µM (≈ 118 µg/mL) | 50 µM (≈ 118 µg/mL) | 25 µM (≈ 59 µg/mL)
